Test results reported in patent US20170008928A1, “NOVEL PEPTIDES AND PEPTIDE DERIVATIVES AND USES THEREOF” (Novo Nordisk A/S, priority 2015, published 2017).
Read-outs that look alike come from different tables or passages of the source. Starred links: 1 amine or outer side, 2 acyl side, 3 side chain; linkers in the order of their positions; H or OH if unused. Non-standard residues stand in square brackets, D forms with d. Residues, ends and D or L forms follow the SMILES beside them. No end group written: not given here. *: point of attachment. Phe(4-CH2SO3H) = N[C@@H](Cc1ccc(CS(=O)(=O)O)cc1)C(=O)O; sY = N[C@@H](Cc1ccc(OS(=O)(=O)O)cc1)C(=O)O; C18 diacid = O=C(O)CCCCCCCCCCCCCCCCC(=O)*; C16 diacid = O=C(O)CCCCCCCCCCCCCCC(=O)*; γGlu = O=C(O)[C@H](CCC(=O)[*:2])N[*:1]; 1Nal = N[C@@H](Cc1cccc2ccccc12)C(=O)O; Met(O2) = CS(=O)(=O)CC[C@H](N)C(=O)O; NMeF = CN[C@@H](Cc1ccccc1)C(=O)O; dNMeD = CN[C@H](CC(=O)O)C(=O)O; Nle = CCCC[C@H](N)C(=O)O; AEEA = NCCOCCOCC(=O)O

T1: human cholecystokinin-1 receptor (human, UniProt P32238 1-428)
T1 sequence (looked up): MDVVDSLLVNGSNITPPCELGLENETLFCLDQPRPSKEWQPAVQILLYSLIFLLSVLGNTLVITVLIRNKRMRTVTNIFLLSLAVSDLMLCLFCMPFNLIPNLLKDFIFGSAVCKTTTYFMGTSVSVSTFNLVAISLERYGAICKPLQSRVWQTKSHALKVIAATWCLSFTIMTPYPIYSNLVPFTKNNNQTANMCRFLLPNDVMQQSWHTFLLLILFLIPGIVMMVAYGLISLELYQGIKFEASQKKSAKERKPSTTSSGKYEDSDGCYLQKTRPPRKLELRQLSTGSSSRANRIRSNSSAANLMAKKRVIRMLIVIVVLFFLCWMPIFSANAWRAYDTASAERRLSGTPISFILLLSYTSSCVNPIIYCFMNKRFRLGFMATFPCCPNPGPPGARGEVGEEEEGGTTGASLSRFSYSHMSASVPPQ

T2: human cholecystokinin-2 receptor (human, UniProt P32239 1-447)
T2 sequence (looked up): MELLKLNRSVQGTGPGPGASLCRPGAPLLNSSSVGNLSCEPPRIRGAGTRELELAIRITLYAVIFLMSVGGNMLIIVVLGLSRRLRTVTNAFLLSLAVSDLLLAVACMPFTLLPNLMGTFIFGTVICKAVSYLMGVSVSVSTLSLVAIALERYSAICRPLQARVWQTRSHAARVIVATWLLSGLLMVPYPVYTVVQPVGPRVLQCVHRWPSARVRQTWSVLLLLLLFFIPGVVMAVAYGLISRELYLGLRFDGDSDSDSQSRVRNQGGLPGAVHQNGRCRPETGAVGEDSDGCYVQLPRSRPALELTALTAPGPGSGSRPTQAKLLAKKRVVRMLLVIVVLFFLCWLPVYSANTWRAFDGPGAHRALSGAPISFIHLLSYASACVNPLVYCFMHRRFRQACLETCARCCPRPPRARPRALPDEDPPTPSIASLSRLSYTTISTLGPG

T3: human cholecystokinin-2 receptor (CCK-2R) (Homo sapiens, UniProt P32239)
T3 construct: host or cells: 1321-N1 cells (plasma membranes prepared by Evotec AG Hamburg)
T3 sequence (P32239 1-447): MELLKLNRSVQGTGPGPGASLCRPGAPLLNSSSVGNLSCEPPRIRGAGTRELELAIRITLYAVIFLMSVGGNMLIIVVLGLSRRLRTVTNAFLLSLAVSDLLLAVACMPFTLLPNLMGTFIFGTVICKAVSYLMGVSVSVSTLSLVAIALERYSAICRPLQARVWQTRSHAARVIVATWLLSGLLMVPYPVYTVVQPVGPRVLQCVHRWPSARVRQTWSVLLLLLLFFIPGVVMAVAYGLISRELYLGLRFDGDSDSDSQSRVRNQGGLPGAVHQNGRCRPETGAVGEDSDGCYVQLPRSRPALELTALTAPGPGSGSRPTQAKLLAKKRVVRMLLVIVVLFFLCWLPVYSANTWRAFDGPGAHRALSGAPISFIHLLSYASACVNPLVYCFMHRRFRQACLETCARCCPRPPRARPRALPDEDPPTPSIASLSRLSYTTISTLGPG

T4: human cholecystokinin-1 receptor (CCK-1R) (Homo sapiens, UniProt P32238)
T4 construct: host or cells: 1321-N1 cells
T4 sequence (P32238 1-428): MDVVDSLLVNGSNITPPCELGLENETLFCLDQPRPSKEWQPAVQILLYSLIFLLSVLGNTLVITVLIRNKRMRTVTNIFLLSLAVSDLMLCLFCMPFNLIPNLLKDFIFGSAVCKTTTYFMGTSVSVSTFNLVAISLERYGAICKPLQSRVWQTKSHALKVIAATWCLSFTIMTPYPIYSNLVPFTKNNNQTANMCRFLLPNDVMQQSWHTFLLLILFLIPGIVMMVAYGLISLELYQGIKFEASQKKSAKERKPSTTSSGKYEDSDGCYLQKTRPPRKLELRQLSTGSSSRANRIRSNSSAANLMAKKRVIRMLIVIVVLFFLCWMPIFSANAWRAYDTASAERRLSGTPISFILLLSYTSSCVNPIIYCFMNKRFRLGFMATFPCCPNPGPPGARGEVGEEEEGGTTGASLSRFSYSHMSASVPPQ


Columns and labels:
[1] = target: T1, human cholecystokinin-1 receptor; assay: cell-based or functional assay
[2] = target: T2, human cholecystokinin-2 receptor; assay: cell-based or functional assay
[3] = target: T3, human cholecystokinin-2 receptor (CCK-2R); assay: In vitro potency on CCK-2R, whole cell functional assay (IP1 accumulation, IP-One HTRF); type: cell-based
[4] = target: T3, human cholecystokinin-2 receptor (CCK-2R); assay: In vitro receptor binding to CCK-2R, SPA displacement of [125I]-CCK-8s from plasma membranes
[5] = target: T4, human cholecystokinin-1 receptor (CCK-1R); assay: In vitro potency on CCK-1R, whole cell functional assay (IP1 accumulation, IP-One HTRF); type: cell-based
[6] = target: T4, human cholecystokinin-1 receptor (CCK-1R); assay: In vitro receptor binding to CCK-1R, SPA displacement of [125I]-CCK-8s from plasma membranes; conditions: for CCK-1R binding selectivity (IC50 (CCK-2R)/IC50 (CCK-1R)): ratio of binding IC50 values, >1 = preference for CCK-1R
[7] = 1321-N1 cells stably expressing CCK-2R, IP1 accumulation, highest dose tested 1×10^6 pM, read-out: EC50 (CCK-2R)
[8] = displacement of [125I]-CCK-8s, plasma membranes of 1321-N1 cells expressing CCK-2R, highest dose tested 1×10^7 pM, read-out: IC50 (CCK-2R)
[9] = 1321-N1 cells stably expressing CCK-1R, IP1 accumulation, average of min. three replicates, read-out: EC50 (CCK-1R)
[10] = ratio of functional EC50 values, >1 = preference for CCK-1R

| Molecule | CCK-1R binding selectivity (IC50 (CCK-2R)/IC50 (CCK-1R)) [6] | EC50 [3] [nM] | IC50 [4] [nM] | EC50 [5] [nM] | IC50 [6] [nM] | other results |
| --- | --- | --- | --- | --- | --- | --- |
| 2-[2-[2-[[2-[2-[2-[[(4S)-4-Carboxy-4-(17-carboxyheptadecanoylamino)butanoyl]amino]ethoxy]ethoxy]acetyl]amino]ethoxy]ethoxy]acetyl-Asp-sTyr-Nle-Gly-Trp-Nle-DMeAsp-1Nal-amide (peptide) | – | – | – | – | – | EC50 (CCK-1R) [1]: 0.37 nM; EC50 (CCK-2R) [2]: 180 nM |
| CC(C)C[C@H](NC(=O)[C@H](Cc1ccc(OS(=O)(=O)O)cc1)NC(=O)[C@H](CCC(=O)O)NC(=O)COCCOCCNC(=O)COCCOCCNC(=O)CC[C@H](NC(=O)CCCCCCCCCCCCCCCCC(=O)O)C(=O)O)C(=O)NCC(=O)N[C@@H](Cc1c[nH]c2ccccc12)C(=O)N[C@@H](CCC(N)=O)C(=O)N(C)[C@H](CC(=O)O)C(=O)N(C)[C@@H](Cc1ccccc1)C(N)=O [Example 42, 2-[2-[2-[[2-[2-[2-[[(4S)-4-Carboxy-4-(17-carboxyheptadecanoylamino)butanoyl]amino]ethoxy]ethoxy]acetyl]amino]ethoxy]ethoxy]acetyl-Glu-sTyr-Leu-Gly-Trp-Gln-DMeAsp-MePhe-amide] | very selective | – | – | – | – | EC50 [3, 7]: > 1000 nM; IC50 [4, 8]: > 10000 nM; EC50 [5, 9]: 0.22 nM; CCK-1R selectivity (EC50 (CCK-2R)/EC50 (CCK-1R)) [5, 10]: very selective |
| CCCC[C@H](NC(=O)[C@H](Cc1c[nH]c2ccccc12)NC(=O)CNC(=O)[C@H](CC(C)C)NC(=O)[C@H](Cc1ccc(CS(=O)(=O)O)cc1)NC(=O)[C@H](CC(=O)O)NC(=O)COCCOCCNC(=O)COCCOCCNC(=O)CC[C@H](NC(=O)CCCCCCCCCCCCCCC(=O)O)C(=O)O)C(=O)N(C)[C@H](CC(=O)O)C(=O)N(C)[C@@H](Cc1ccccc1)C(N)=O [Example 6, 2-[2-[2-[[2-[2-[2-[[(4S)-4-Carboxy-4-(15-carboxypentadecanoylamino)butanoyl]amino]ethoxy]ethoxy]acetyl]amino]ethoxy]ethoxy]acetyl-Asp-Phe(4-sulfomethyl)-Leu-Gly-Trp-Nle-DMeAsp-MePhe-amide] ({C16 diacid-γGlu-AEEA-AEEA}-D[Phe(4-CH2SO3H)]LGW[Nle][dNMeD][NMeF]-NH2) | – | > 1000 | > 10000 | 0.2 | 0.2 | – |
| CC(C)C[C@H](NC(=O)[C@H](Cc1ccc(OS(=O)(=O)O)cc1)NC(=O)[C@H](CC(=O)O)NC(=O)COCCOCCNC(=O)COCCOCCNC(=O)CC[C@H](NC(=O)CCCCCCCCCCCCCCCCC(=O)O)C(=O)O)C(=O)NCC(=O)N[C@@H](Cc1c[nH]c2ccccc12)C(=O)N[C@H](C(=O)N(C)[C@H](CC(=O)O)C(=O)N(C)[C@@H](Cc1ccccc1)C(N)=O)C(C)C [Example 14, 2-[2-[2-[[2-[2-[2-[[(4S)-4-Carboxy-4-(17-carboxyheptadecanoylamino)butanoyl]amino]ethoxy]ethoxy]acetyl]amino]ethoxy]ethoxy]acetyl-Asp-sTyr-Leu-Gly-Trp-Val-DMeAsp-MePhe-amide] ({C18 diacid-γGlu-AEEA-AEEA}-D[sY]LGWV[dNMeD][NMeF]-NH2) | 21000 | 730 | 6400 | 0.14 | 0.31 | CCK-1R selectivity (EC50 (CCK-2R)/EC50 (CCK-1R)) [5]: 5100 |
| CCCC[C@H](NC(=O)[C@H](Cc1ccc(OS(=O)(=O)O)cc1)NC(=O)[C@@H](N)CC(=O)O)C(=O)NCC(=O)N[C@@H](Cc1c[nH]c2ccccc12)C(=O)N[C@@H](CCCC)C(=O)N(C)[C@H](CC(=O)O)C(=O)N[C@@H](Cc1cccc2ccccc12)C(N)=O [Example 54, Asp-sTyr-Nle-Gly-Trp-Nle-DMeAsp-1Nal-amide] (H-D[sY][Nle]GW[Nle][dNMeD][1Nal]-NH2) | 84000 | – | – | – | – | EC50 [3, 7]: 290 nM; IC50 [4, 8]: 2300 nM; EC50 [5, 9]: 0.14 nM; CCK-1R selectivity (EC50 (CCK-2R)/EC50 (CCK-1R)) [5, 10]: 2100; IC50 ([6]; displacement of [125I]-CCK-8s, plasma membranes of 1321-N1 cells expressing CCK-1R, read-out: IC50 (CCK-1R)): 0.027 nM |
| CC(C)C[C@H](NC(=O)[C@H](Cc1ccc(OS(=O)(=O)O)cc1)NC(=O)[C@@H](N)CC(=O)O)C(=O)NCC(=O)N[C@@H](Cc1c[nH]c2ccccc12)C(=O)N[C@@H](C)C(=O)N(C)[C@H](CC(=O)O)C(=O)N(C)[C@@H](Cc1ccccc1)C(N)=O [Example 84, Asp-sTyr-Leu-Gly-Trp-Ala-DMeAsp-MePhe-amide] (H-D[sY]LGWA[dNMeD][NMeF]-NH2) | – | > 1000 | > 10000 | 0.22 | 0.53 | – |
| D[sY]LGW[Met(O2)][dNMeD][NMeF]-NH2 [Asp-sTyr-Leu-Gly-Trp-Met(O2)-DMeAsp-MePhe-amide] | – | – | – | – | – | EC50 (CCK-1R) [1]: 0.37 nM; EC50 (CCK-2R) [2]: > 1000 nM |
